The term IC50 denotes the concentration that inhibits the measured activity by half. Lower therefore signals inhibition by little substance. Usually inhibition stands for the percentage by which the read-out fell short of the control. The term Ki denotes a dissociation constant, usually derived from enzyme kinetics or from competition with a known ligand.

The target of assay [1] is BuChE from human serum (Homo sapiens, UniProt P06276). In words: Inhibition of BuChE. In kind it is biochemical.
The target in assay [2] is human H1R (Homo sapiens, UniProt P35367). The assay is described as follows: Human H1R radioligand displacement assay. In kind it is binding. Conditions: read-out: hH1R Inhibition at 10 µM [%] ±SD (n). (Displacement assays read how much labelled ligand stays bound in the presence of the test substance.)
Sequence of human H1R (P35367 whole entry): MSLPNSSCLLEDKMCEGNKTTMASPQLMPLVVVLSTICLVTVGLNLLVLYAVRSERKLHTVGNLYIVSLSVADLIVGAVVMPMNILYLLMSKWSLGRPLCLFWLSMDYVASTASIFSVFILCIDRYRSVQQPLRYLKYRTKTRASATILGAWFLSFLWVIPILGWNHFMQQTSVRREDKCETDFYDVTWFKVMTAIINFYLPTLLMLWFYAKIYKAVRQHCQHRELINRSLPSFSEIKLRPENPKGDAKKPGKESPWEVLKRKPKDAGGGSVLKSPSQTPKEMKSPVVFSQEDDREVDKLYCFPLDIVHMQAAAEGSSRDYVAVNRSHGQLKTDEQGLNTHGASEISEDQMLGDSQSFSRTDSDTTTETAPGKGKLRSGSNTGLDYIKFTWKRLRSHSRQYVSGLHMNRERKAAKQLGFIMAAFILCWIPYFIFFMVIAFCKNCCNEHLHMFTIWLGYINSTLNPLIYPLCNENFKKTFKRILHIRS
The target in assay [3] is human H4R (Homo sapiens, UniProt Q9H3N8). In words: Human H4R radioligand displacement assay. To be noted: read-out: hH4R Inhibition at 10 µM [%] (n).
Sequence of human H4R (Q9H3N8 whole entry): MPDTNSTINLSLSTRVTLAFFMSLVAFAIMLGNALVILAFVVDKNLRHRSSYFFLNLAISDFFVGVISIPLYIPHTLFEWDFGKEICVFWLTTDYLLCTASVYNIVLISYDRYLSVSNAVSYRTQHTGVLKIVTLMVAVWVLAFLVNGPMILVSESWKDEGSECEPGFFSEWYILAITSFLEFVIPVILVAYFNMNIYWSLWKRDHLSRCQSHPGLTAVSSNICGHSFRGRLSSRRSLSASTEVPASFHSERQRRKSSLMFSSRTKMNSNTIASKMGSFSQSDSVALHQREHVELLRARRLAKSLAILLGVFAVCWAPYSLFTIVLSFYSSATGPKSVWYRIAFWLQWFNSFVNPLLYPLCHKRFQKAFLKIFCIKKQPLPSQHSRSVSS
Assay [4] addresses T1, human recombinant MAO-A (Homo sapiens, UniProt P21397).
T1 sequence (P21397 1-527): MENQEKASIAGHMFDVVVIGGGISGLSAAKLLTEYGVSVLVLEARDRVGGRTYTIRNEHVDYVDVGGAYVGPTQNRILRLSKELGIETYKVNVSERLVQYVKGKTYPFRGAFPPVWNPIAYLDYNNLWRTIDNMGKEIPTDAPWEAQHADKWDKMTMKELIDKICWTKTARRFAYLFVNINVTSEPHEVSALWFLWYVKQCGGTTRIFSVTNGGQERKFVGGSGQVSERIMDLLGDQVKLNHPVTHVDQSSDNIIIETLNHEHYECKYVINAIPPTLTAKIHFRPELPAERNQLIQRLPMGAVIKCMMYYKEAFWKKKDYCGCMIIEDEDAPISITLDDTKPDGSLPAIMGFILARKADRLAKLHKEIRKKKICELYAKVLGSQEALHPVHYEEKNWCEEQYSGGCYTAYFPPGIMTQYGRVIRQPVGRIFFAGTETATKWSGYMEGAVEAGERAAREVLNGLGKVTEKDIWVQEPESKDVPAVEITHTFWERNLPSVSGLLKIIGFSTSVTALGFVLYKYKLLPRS
In words: Inhibition of monoamine oxidase A. In kind it is biochemical. To be noted: read-out: MAO-A % Inhibition at 10 µM.

For assay [5], the target named is human H3R (Homo sapiens, UniProt Q9Y5N1). The assay is described as follows: Human H3R radioligand displacement assay.
Sequence of human H3R (Q9Y5N1 whole entry): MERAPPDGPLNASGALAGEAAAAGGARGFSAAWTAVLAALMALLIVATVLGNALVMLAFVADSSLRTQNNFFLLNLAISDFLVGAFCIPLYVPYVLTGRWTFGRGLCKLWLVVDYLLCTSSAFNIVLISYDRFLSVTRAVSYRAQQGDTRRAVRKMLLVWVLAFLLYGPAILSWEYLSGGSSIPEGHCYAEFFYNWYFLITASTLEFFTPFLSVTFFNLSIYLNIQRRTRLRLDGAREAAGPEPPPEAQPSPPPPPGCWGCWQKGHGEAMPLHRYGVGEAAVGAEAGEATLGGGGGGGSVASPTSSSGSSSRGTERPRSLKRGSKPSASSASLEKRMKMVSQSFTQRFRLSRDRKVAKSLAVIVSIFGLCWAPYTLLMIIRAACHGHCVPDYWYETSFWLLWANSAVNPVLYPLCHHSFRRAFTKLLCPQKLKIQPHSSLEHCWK
Assay [6] concerns the target T2, human recombinant MAO-B (Homo sapiens, UniProt P27338).
T2 sequence (P27338 1-520): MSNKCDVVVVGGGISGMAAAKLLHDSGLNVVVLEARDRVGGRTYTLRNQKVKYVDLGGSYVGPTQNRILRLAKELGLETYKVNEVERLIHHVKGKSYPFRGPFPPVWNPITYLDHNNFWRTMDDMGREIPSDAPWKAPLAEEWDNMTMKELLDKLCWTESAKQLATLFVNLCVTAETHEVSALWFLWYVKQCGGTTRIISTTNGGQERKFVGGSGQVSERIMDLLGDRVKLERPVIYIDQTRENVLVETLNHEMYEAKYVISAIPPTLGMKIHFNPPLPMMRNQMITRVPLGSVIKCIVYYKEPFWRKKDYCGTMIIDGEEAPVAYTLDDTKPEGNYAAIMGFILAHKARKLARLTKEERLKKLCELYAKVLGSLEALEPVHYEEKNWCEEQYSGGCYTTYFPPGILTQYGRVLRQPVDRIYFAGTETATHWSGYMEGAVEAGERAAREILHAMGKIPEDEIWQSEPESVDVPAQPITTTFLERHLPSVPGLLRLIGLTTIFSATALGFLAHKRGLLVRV
In words: Inhibition of monoamine oxidase B. In kind it is biochemical. Conditions: read-out: MAO-B % Inhibition at 10 µM, 10 µM; mean of three experiments.

Assay [7] addresses human AChE (Homo sapiens, UniProt P22303). The assay is described as follows: Inhibition of AChE. In kind it is biochemical.

Sequence of BuChE from human serum (P06276 29-602): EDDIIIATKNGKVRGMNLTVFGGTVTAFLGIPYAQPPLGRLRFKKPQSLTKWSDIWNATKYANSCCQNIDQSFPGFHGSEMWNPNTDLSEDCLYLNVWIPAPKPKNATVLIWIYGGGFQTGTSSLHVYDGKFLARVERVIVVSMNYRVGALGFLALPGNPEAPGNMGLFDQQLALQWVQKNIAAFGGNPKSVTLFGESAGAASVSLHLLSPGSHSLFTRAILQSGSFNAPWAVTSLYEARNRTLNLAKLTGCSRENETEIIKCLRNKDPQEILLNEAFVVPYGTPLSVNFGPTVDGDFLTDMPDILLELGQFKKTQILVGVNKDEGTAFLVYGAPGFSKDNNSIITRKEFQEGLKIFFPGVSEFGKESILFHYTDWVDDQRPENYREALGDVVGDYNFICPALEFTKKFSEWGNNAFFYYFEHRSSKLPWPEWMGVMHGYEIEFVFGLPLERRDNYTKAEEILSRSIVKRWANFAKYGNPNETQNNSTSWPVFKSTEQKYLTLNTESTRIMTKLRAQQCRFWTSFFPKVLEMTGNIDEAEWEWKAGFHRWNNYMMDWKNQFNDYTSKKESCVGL
Sequence of human AChE (P22303 32-614): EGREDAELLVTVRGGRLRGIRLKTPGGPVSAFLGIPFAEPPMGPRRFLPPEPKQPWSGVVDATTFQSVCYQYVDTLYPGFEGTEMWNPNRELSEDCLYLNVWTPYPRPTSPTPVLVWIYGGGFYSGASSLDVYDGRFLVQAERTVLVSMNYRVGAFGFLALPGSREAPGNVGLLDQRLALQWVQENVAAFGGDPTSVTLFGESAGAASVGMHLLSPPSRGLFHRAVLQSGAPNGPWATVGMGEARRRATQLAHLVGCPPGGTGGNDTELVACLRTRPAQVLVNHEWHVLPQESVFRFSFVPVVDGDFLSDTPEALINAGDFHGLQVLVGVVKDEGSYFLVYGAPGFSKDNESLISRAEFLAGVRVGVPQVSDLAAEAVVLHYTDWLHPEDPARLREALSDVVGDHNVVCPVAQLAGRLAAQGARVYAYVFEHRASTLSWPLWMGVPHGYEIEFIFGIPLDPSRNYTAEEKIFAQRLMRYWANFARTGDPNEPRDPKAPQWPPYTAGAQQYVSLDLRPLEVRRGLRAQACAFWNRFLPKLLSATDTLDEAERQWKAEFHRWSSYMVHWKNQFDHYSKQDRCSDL

On to `O=C(c1nc2ccc(OCCCCN3CCCCC3)cc2s1)N1CCCCC1` [Compound 3j, Piperidin-1-yl-(6-(4-(piperidin-1-yl)butoxy)benzo[d]thiazol-2-yl)methanone], for which the IC50 was 3.07 ± 0.24 µM in assay [1] and 8.56 ± 2.83 µM in assay [7]. The inhibition at 10 µM in assay [1] (read-out: hBuChE % Inhibition at 10 µM) was 70 ± 2%; in assay [2], 42.8 ± 7.7%; in assay [3] it was 53.1 ± 11.7%; in assay [4] it was 29 ± 5%; in assay [6], 48 ± 5%; in assay [7] (read-out: AChE Inhibition at 10 µM [%]) it was 54.8 ± 7.01%. In assay [5], this compound came in with a Ki of 0.17 µM.

For the origin of these results see paper PMC9937012 (Journal of Enzyme Inhibition and Medicinal Chemistry, 2023).
